Measurements as given in PubChem BioAssay (NCI).
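Method: 48-hour compound exposure of cells in 96-well plates, five concentrations, linear interpolation of endpoints. GI50: concentration for 50% inhibition of growth. TGI: total growth inhibition.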

Columns and labels:
Test in all cases: DTP human tumour cell line panel, 48 h
786-0 renal = system: 786-0 renal
COLO 205 colon = system: COLO 205 colon
HCT-15 colon = system: HCT-15 colon
RPMI-8226 leukemia = system: RPMI-8226 leukemia
RXF 393 renal = system: RXF 393 renal
SK-OV-3 ovarian = system: SK-OV-3 ovarian
TK-10 renal = system: TK-10 renal
UO-31 renal = system: UO-31 renal
ACHN renal = system: ACHN renal
MDA-MB-231 breast = system: MDA-MB-231 breast

SMILES | TGI (786-0 renal) | TGI (COLO 205 colon) | TGI (HCT-15 colon) | TGI (RPMI-8226 leukemia) | TGI (RXF 393 renal) | TGI (SK-OV-3 ovarian) | TGI (TK-10 renal) | TGI (UO-31 renal) | TGI (ACHN renal) | GI50 (786-0 renal) | GI50 (ACHN renal) | GI50 (COLO 205 colon) | GI50 (HCT-15 colon) | GI50 (MDA-MB-231 breast) | TGI (MDA-MB-231 breast) | GI50 (RPMI-8226 leukemia) | GI50 (SK-OV-3 ovarian) | GI50 (TK-10 renal) | GI50 (UO-31 renal) | GI50 (RXF 393 renal)
O=C1CCSC2=C1SCc1sccc12 | > 100 µM | > 100 µM | > 100 µM | > 100 µM | > 100 µM | > 100 µM | > 100 µM | > 100 µM | – | – | – | – | – | – | – | – | – | – | – | –
Nc1cc(=O)n(-c2ccccc2)c(=S)n1-c1ccccc1 | > 100 µM | > 100 µM | > 100 µM | > 100 µM | > 100 µM | > 100 µM | > 100 µM | > 100 µM | > 100 µM | – | – | – | – | – | – | – | – | – | – | –
COc1ccccc1NC(=O)c1nc2ccc([N+](=O)[O-])cc2nc1C | > 100 µM | > 100 µM | > 100 µM | > 100 µM | – | > 100 µM | > 100 µM | > 100 µM | > 100 µM | – | – | – | – | – | – | – | – | – | – | –
N/N=c1\c2ccccc2c2cc3c(cc12)/c(=N/N)c1ccccc13 | > 100 µM | > 100 µM | > 100 µM | > 100 µM | > 100 µM | > 100 µM | – | > 100 µM | > 100 µM | – | – | – | – | – | – | – | – | – | – | –
NCC1OC(OC2C(CO)OC(OC3C(O)C(N)CC(N)C3OC3OC(CO)C(O)CC3N)C2O)C(N)C(O)C1OC1OC(CO)C(O)C(O)C1O (centres undefined) | > 50 µg/mL | > 50 µg/mL | > 50 µg/mL | > 50 µg/mL | – | > 50 µg/mL | > 50 µg/mL | > 50 µg/mL | > 50 µg/mL | > 50 µg/mL | > 50 µg/mL | > 50 µg/mL | > 50 µg/mL | > 50 µg/mL | > 50 µg/mL | > 50 µg/mL | > 50 µg/mL | > 50 µg/mL | > 50 µg/mL | –
COc1ccc(Nc2cc(C)nc(NCCCNc3ccnc4cc(Cl)ccc34)n2)cc1 | 3.26 µM | 3.22 µM | 2.49 µM | 5 µM | – | 3.2 µM | 3.41 µM | 2.95 µM | 3.16 µM | 1.67 µM | 1.61 µM | 1.58 µM | 1.03 µM | 1.55 µM | 3.31 µM | 1.81 µM | 1.67 µM | 1.89 µM | 1.52 µM | –
O=C(c1ccco1)c1c(C(F)(F)F)n([O-])c2ccc(Cl)cc2[n+]1=O | 0.115 µM | 12.8 µM | 1.72 µM | – | 3.83 µM | 5.63 µM | 1.02 µM | 2.98 µM | 0.482 µM | 0.043 µM | 0.137 µM | 1.39 µM | 0.372 µM | 0.376 µM | 1.41 µM | – | 2.09 µM | 0.363 µM | 1.57 µM | 1.38 µM
OCc1c[te]c(-c2ccccc2)c1 | > 100 µM | – | > 100 µM | 86.8 µM | > 100 µM | > 100 µM | > 100 µM | 79.4 µM | > 100 µM | – | – | – | – | – | – | – | – | – | – | –
Cc1ccc(S(=O)OCC23CC4CC(CC(C4)C2)C3)cc1 (centres undefined) | > 100 µM | > 100 µM | > 100 µM | > 100 µM | > 100 µM | > 100 µM | > 100 µM | > 100 µM | > 100 µM | – | – | – | – | – | – | – | – | – | – | –
